Consider one molecule from ChEMBL document CHEMBL4118122, “Identification and biological evaluation of thiazole-based inverse agonists of RORγt” (Bioorg Med Chem Lett, 2018).

Each structure is given as a SMILES string.

The species named for series [1] is Rattus norvegicus. Description: Displacement of [3H]D 888 from rat brain L-type calcium channel verapamil binding site at 1 uM after 120 mins by scintillation counting analysis relative to control.
Series [2] addresses Inhibitor of nuclear factor kappa-B kinase subunit beta (Homo sapiens) (UniProt O14920). The experiment in a line: Inhibition of recombinant full length GST-tagged human IKKbeta expressed in baculovirus expression system at 10 uM in presence of ATP relative to control.
Series [3] has as its target Receptor-type tyrosine-protein kinase FLT3 (Homo sapiens) (UniProt P36888). Description: Inhibition of recombinant His-tagged human FLT3 (564 to 958 residues) cytoplasmic domain expressed in baculovirus expression system at 10 uM in presence of ATP relative to control.
Series [4] concerns the target Casein kinase I isoform epsilon (Homo sapiens) (UniProt P49674). The experiment in a line: Inhibition of CK1epsilon (unknown origin) at 10 uM in presence of ATP relative to control.
The target in the next series is Melanocortin receptor 4 (Homo sapiens, UniProt P32245). The experiment in a line: Displacement of [125I]NDP-alpha -MSH from human recombinant MC4 receptor at 10 uM after 120 mins by scintillation counting analysis relative to control. (In general: Loss of bound radioactivity is the signal in a displacement assay; it reports binding, not function.)
The nature of series [5]: Clearance in Sprague-Dawley rat at 1 mg/kg, iv. The format is ADME, organism-based. The following applies: in vivo.
The nature of series [6]: Half life in rat microsomes. The format is ADME, Microsome.
Series [7] deals with Aurora kinase B (Homo sapiens) (UniProt Q96GD4). The experiment in a line: Inhibition of recombinant full length His-tagged human Aurora B expressed in baculovirus expression system at 10 uM in presence of ATP relative to control.
Series [8] can be described thus: Thermodynamic solubility of the compound in 30 mM phosphate buffer at 10 mM at pH 7 after 2 to 5 days by UV-HPLC analysis. The following applies: read-out: Therm_solubility. The series is classed as physicochemical.
The target of series [9] is Muscarinic acetylcholine receptor M2 (Homo sapiens, UniProt P08172). The experiment in a line: Displacement of [3H]AF-DX 384 from human recombinant M2 receptor after 60 mins by scintillation counting analysis.
The species named for series [10] is Rattus norvegicus. Description: Binding affinity to rat GABA receptor at 10 uM after 60 mins by radioligand binding assay relative to control.
The nature of series [11]: Half life in human microsomes. The series is classed as ADME, Microsome.
Series [12] concerns the target 5-hydroxytryptamine receptor 2B (Homo sapiens, UniProt P41595). Description: Displacement of [125I]+/-DOI from human recombinant 5-HT2B receptor at 10 uM after 60 mins by scintillation counting analysis relative to control.
The target of series [13] is Vasoactive intestinal polypeptide receptor 1 (Homo sapiens, UniProt P32241). The experiment in a line: Displacement of [125I]VIP from human recombinant VPAC1 receptor after 60 mins by scintillation counting analysis.
The target in series [14] is 5-hydroxytryptamine receptor 1B (Rattus norvegicus) (UniProt P28564). Description: Displacement of [125I]-CYP from rat brain 5-HT1B receptor at 1 uM after 120 mins by scintillation counting analysis relative to control.
The target in series [15] is C-X-C chemokine receptor type 2 (Homo sapiens, UniProt P25025). The experiment in a line: Displacement of [125I]IL-8 from human recombinant CXCR2 receptor after 60 mins by scintillation counting analysis.
Series [16] addresses Adrenergic receptor alpha-1 (Rattus norvegicus, UniProt P15823+P23944+P43140). Description: Displacement of [3H]-prazosin from rat alpha1 adrenoceptor after 60 mins by scintillation counting analysis. The format is protein assay.
In series [17] the target is Insulin receptor (Homo sapiens) (UniProt P06213). Description: Inhibition of recombinant His-tagged human InsR (1011 to 1382 residues) expressed in baculovirus expression system at 10 uM in presence of ATP relative to control.
In a further series the target is Endothelin-1 receptor (Homo sapiens, UniProt P25101). Description: Displacement of [125I]-endothelin-1 from human recombinant ETA receptor after 120 mins by scintillation counting analysis.
Sequence of Endothelin-1 receptor (P25101 whole entry): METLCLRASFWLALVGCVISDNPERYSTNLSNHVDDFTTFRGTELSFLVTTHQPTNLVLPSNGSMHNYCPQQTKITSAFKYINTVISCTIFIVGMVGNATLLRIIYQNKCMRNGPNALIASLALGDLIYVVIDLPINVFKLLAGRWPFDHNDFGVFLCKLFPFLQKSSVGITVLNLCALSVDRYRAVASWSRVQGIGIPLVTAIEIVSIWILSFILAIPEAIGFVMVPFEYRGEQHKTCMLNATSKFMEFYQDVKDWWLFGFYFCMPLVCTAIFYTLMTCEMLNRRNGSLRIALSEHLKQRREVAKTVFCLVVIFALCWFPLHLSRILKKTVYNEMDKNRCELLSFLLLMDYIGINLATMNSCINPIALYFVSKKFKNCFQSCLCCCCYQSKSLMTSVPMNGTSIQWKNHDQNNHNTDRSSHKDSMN

Sequence of 5-hydroxytryptamine receptor 2B (P41595 whole entry): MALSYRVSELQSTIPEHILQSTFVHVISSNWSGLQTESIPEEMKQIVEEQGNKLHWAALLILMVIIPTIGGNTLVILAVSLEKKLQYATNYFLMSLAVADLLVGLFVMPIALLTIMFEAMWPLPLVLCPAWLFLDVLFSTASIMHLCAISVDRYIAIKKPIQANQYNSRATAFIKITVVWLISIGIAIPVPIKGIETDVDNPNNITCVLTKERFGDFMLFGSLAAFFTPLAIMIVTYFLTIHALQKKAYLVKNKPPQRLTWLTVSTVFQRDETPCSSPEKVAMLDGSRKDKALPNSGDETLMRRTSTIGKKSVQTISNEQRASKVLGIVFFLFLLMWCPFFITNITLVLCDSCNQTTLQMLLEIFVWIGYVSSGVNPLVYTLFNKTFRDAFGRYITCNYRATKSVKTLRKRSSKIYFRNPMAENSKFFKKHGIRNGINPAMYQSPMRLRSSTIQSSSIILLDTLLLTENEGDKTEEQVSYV
Sequence of 5-hydroxytryptamine receptor 1B (Rattus norvegicus) (P28564 whole entry): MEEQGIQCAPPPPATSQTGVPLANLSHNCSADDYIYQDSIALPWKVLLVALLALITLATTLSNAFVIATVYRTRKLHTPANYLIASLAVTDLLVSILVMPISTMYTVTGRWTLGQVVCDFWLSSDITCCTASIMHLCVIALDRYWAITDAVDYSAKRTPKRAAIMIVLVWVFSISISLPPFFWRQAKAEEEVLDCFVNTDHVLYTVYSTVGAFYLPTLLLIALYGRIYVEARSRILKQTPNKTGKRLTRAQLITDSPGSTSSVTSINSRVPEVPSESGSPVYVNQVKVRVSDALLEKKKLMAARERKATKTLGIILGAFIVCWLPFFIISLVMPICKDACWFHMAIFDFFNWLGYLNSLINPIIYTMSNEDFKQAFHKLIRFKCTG
Sequence of Aurora kinase B (Homo sapiens) (Q96GD4 whole entry): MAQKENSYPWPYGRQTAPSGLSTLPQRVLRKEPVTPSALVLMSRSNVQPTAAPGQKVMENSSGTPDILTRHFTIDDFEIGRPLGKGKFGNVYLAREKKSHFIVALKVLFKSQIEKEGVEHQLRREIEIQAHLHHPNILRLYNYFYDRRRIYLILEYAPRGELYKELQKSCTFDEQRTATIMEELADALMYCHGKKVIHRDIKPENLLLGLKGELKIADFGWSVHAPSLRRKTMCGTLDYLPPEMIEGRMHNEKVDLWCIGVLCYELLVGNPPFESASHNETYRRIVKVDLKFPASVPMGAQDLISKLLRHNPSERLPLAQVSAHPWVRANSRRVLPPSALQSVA
Sequence of Casein kinase I isoform epsilon (Homo sapiens) (P49674 whole entry, looked up, canonical isoform): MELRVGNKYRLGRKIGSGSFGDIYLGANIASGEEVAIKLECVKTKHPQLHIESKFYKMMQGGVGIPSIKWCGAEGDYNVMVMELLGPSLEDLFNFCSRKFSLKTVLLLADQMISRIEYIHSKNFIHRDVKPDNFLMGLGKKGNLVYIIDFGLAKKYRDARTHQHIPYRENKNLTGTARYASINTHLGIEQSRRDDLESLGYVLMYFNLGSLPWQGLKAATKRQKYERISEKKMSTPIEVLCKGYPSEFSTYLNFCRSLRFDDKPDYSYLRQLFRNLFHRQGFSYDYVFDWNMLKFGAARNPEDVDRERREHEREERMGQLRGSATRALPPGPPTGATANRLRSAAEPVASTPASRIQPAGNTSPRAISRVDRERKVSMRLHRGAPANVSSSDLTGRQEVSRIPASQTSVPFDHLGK
Sequence of Receptor-type tyrosine-protein kinase FLT3 (Homo sapiens) (P36888 whole entry, the tested form may be a part, canonical isoform): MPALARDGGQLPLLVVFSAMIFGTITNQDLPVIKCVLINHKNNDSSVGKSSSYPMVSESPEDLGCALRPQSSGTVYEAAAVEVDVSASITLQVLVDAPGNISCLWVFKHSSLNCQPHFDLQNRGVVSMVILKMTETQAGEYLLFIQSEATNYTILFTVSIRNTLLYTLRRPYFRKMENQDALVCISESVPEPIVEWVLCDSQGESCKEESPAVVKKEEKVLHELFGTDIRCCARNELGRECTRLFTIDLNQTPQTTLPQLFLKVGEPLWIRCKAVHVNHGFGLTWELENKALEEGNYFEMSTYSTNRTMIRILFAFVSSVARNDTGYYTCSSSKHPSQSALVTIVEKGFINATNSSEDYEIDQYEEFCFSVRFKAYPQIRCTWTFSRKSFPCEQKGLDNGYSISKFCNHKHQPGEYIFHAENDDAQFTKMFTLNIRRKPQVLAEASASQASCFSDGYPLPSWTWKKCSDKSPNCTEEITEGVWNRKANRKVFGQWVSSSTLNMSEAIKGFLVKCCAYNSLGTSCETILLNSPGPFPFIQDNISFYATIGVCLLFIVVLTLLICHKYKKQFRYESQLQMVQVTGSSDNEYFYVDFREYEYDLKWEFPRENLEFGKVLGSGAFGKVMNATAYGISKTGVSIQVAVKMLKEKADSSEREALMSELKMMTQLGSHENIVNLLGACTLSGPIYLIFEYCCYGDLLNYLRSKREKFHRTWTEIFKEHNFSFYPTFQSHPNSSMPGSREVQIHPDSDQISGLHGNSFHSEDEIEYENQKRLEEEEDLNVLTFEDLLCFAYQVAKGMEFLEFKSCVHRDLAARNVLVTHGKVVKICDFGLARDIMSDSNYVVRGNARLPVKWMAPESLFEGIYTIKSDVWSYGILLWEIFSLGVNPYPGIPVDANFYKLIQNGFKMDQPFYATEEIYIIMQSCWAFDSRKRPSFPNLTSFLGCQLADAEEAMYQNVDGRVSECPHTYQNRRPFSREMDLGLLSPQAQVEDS
Sequence of Muscarinic acetylcholine receptor M2 (P08172 whole entry): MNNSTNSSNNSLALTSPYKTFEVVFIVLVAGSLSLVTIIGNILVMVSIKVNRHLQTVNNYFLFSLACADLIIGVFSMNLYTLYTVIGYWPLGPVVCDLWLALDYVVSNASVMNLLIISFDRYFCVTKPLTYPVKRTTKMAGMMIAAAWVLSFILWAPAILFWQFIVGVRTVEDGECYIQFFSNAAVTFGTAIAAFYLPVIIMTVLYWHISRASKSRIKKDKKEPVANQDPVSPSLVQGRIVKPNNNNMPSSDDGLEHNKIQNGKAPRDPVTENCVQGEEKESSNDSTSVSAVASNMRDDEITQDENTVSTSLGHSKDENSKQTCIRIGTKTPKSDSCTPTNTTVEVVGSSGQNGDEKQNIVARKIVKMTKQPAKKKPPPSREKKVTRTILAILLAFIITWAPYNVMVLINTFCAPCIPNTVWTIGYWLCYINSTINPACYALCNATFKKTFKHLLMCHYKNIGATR
Sequence of C-X-C chemokine receptor type 2 (P25025 whole entry): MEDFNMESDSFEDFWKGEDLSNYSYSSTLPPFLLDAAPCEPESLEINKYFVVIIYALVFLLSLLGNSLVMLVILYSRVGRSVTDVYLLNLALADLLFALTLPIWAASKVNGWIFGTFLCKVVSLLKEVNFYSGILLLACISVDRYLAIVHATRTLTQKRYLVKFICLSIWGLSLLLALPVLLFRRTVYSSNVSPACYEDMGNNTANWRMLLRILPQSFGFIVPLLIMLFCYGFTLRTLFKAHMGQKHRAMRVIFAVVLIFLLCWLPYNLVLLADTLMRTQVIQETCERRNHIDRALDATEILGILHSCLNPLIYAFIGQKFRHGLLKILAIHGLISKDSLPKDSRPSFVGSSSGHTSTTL
Sequence of Vasoactive intestinal polypeptide receptor 1 (P32241 whole entry): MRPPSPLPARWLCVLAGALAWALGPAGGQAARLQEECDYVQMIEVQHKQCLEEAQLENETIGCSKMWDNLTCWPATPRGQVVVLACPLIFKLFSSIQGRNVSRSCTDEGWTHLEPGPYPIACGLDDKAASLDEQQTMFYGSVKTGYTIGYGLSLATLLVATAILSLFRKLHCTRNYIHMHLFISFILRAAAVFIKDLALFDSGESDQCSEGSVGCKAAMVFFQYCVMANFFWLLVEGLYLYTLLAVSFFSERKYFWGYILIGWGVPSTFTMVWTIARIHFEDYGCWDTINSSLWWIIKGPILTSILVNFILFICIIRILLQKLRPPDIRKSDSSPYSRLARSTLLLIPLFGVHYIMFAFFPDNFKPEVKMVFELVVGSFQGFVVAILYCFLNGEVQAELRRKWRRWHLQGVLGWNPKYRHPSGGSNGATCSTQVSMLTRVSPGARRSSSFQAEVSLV
Sequence of Melanocortin receptor 4 (P32245 whole entry): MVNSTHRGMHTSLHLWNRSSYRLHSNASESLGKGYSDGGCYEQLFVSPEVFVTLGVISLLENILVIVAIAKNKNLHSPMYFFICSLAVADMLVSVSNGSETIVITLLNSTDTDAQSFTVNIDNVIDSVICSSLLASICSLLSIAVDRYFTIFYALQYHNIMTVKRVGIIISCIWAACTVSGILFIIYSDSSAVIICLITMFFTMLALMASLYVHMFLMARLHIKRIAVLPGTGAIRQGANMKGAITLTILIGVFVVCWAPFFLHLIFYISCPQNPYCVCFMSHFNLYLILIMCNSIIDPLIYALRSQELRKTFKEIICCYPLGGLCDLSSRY

As for `CC(C)(C)NS(=O)(=O)c1ccc(-c2sc(C(=O)N[C@H]3C[C@H](C(=O)O)C3)nc2CC2CCCCC2)c2ccccc12`, the inhibition in the series filed under Rattus norvegicus [1] is less than 10%; in [2] it was -4%; in series [3] it was 0%; in series [4], 4%; at Melanocortin receptor 4 it was 25%; in series [7], 8%. Besides, the inhibition in the series filed under Rattus norvegicus [10] is 14%; in series [12], less than 10%; in series [14], less than 10%; in series [17], -4%. For the same molecule, the clearance in [5] came to 51.4 mL/min/kg. Further, the half-life in series [6] came out at 0.783 h; in [11], 1.25 h. For the same molecule, the solubility thermodynamic at 10000 µM in series [8] was less than 1 µM. Also, the IC50 came to 48 nM in series [9]; 0.47 nM in [13]; 0.24 nM in series [15]; 0.25 nM in series [16]; 0.023 nM at Endothelin-1 receptor.

As usually defined, the inhibition is the drop in the measured response relative to a control, in per cent. What is called clearance is the volume of plasma or blood freed of the substance per unit of time. Read a high clearance as a high capacity for elimination. One may read the half-life as the time needed for the level to fall by half in the phase considered. Read a high half-life as slow decline. For orientation: IC50 means the concentration needed to halve the response being measured.
